Test system: 857933-349-R-J2-PDC complex spheroids, viability
Assay: Anticancer human tumor 857933-349-R-J2-PDC patient-derived colon adenocarcinoma cell line growth inhibition [GQUAD]
Conditions: for IC50: curve of first compound; for viability, T/C: stronger effect = lower value
How it was run: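 Tumor cells were grown as complex spheroids with HUVEC endothelial cells and mesenchymal stem cells as stroma. G-quadruplex stabilizers were combined with targeted agents over half-log dilutions from near the clinical Cmax, or from 10 microM.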

[1] = second compound 0.0316 µM, first compound 0.0316 µM
[2] = second compound 0.0316 µM, first compound 0.1 µM
[3] = second compound 0.0316 µM, first compound 0.316 µM
[4] = second compound 0.0316 µM, first compound 1 µM
[5] = second compound 0.0316 µM, first compound 3.16 µM
[6] = second compound 0.0316 µM, first compound 10 µM
[7] = second compound 0.1 µM, first compound 0.0316 µM
[8] = second compound 0.1 µM, first compound 0.1 µM
[9] = second compound 0.1 µM, first compound 0.316 µM
[10] = second compound 0.1 µM, first compound 1 µM
[11] = second compound 0.1 µM, first compound 3.16 µM
[12] = second compound 0.1 µM, first compound 10 µM
[13] = second compound 0.316 µM, first compound 0.0316 µM
[14] = second compound 0.316 µM, first compound 0.1 µM
[15] = second compound 0.316 µM, first compound 0.316 µM
[16] = second compound 0.316 µM, first compound 1 µM
[17] = second compound 0.316 µM, first compound 3.16 µM
[18] = second compound 0.316 µM, first compound 10 µM
[19] = second compound 1 µM, first compound 0.0316 µM
[20] = second compound 1 µM, first compound 0.1 µM
[21] = second compound 1 µM, first compound 0.316 µM
[22] = second compound 1 µM, first compound 1 µM
[23] = second compound 1 µM, first compound 3.16 µM
[24] = second compound 1 µM, first compound 10 µM
[25] = second compound 3.16 µM, first compound 0.0316 µM
[26] = second compound 3.16 µM, first compound 0.1 µM
[27] = second compound 3.16 µM, first compound 0.316 µM
[28] = second compound 3.16 µM, first compound 1 µM
[29] = second compound 3.16 µM, first compound 3.16 µM
[30] = second compound 3.16 µM, first compound 10 µM
[31] = second compound 10 µM, first compound 0.0316 µM
[32] = second compound 10 µM, first compound 0.1 µM
[33] = second compound 10 µM, first compound 0.316 µM
[34] = second compound 10 µM, first compound 1 µM
[35] = second compound 10 µM, first compound 3.16 µM
[36] = second compound 10 µM, first compound 10 µM
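Note: spheroids exposed to compounds for one week before readout.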
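Throughout, for viability, T/C: percent viability relative to vehicle DMSO wells taken as 100%.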

## CC1COCCN1c1cc(C2(O)CC3CCC(C2)O3)c2cnn(-c3ccn[nH]3)c2n1 (stereo not drawn) + Cc1[nH]c2ccc(F)cc2c1-c1nc2c3cccnc3c3ncccc3c2[nH]1
Second compound 0.0316 µM
  IC50: 289 nM
Second compound 0.1 µM
  IC50: 273 nM
Second compound 0.316 µM
  IC50: 440 nM
Second compound 1 µM
  IC50: 312 nM
Second compound 3.16 µM
  IC50: 699 nM
Second compound 10 µM
  IC50: 267 nM
[1]
  viability, T/C: 76.9%
[2]
  viability, T/C: 64.5%
[3]
  viability, T/C: 49.6%
[4]
  viability, T/C: 41.2%
[5]
  viability, T/C: 47.2%
[6]
  viability, T/C: 42.5%
[7]
  viability, T/C: 69.5%
[8]
  viability, T/C: 61.1%
[9]
  viability, T/C: 44.6%
[10]
  viability, T/C: 47.3%
[11]
  viability, T/C: 50.3%
[12]
  viability, T/C: 51.4%
[13]
  viability, T/C: 67.8%
[14]
  viability, T/C: 65.5%
[15]
  viability, T/C: 52.7%
[16]
  viability, T/C: 42.3%
[17]
  viability, T/C: 45.8%
[18]
  viability, T/C: 42.9%
[19]
  viability, T/C: 58.2%
[20]
  viability, T/C: 59.8%
[21]
  viability, T/C: 46.5%
[22]
  viability, T/C: 44.6%
[23]
  viability, T/C: 46.4%
[24]
  viability, T/C: 47.2%
[25]
  viability, T/C: 64.9%
[26]
  viability, T/C: 59.6%
[27]
  viability, T/C: 52.4%
[28]
  viability, T/C: 46.2%
[29]
  viability, T/C: 48.4%
[30]
  viability, T/C: 45.5%
[31]
  viability, T/C: 77.4%
[32]
  viability, T/C: 61.2%
[33]
  viability, T/C: 49%
[34]
  viability, T/C: 42.4%
[35]
  viability, T/C: 42%
[36]
  viability, T/C: 46.7%

## C=CCn1c(=O)c2cnc(Nc3ccc(N4CCN(C)CC4)cc3)nc2n1-c1cccc(C(C)(C)O)n1 + Cc1cnc(CNC(=O)c2c(=O)c3ccc(N4CCCN(C)CC4)nc3n3c2sc2ccccc23)cn1
Second compound 0.0316 µM
  IC50: 696 nM
Second compound 0.1 µM
  IC50: 263 nM
Second compound 0.316 µM
  IC50: < 31.6 nM
Second compound 1 µM
  IC50: < 31.6 nM
Second compound 3.16 µM
  IC50: < 31.6 nM
Second compound 10 µM
  IC50: < 31.6 nM
[1]
  viability, T/C: 92.5%
[2]
  viability, T/C: 77.4%
[3]
  viability, T/C: 76.8%
[4]
  viability, T/C: 38.5%
[5]
  viability, T/C: 7.81%
[6]
  viability, T/C: 10.4%
[7]
  viability, T/C: 53.7%
[8]
  viability, T/C: 64.7%
[9]
  viability, T/C: 42.7%
[10]
  viability, T/C: 32%
[11]
  viability, T/C: 4.33%
[12]
  viability, T/C: 7.51%
[13]
  viability, T/C: 19.5%
[14]
  viability, T/C: 21.2%
[15]
  viability, T/C: 11.9%
[16]
  viability, T/C: 5.37%
[17]
  viability, T/C: 2.1%
[18]
  viability, T/C: 3.41%
[19]
  viability, T/C: 3.56%
[20]
  viability, T/C: 3.34%
[21]
  viability, T/C: 2.67%
[22]
  viability, T/C: 2.03%
[23]
  viability, T/C: 1.76%
[24]
  viability, T/C: 2.24%
[25]
  viability, T/C: 2.07%
[26]
  viability, T/C: 2.26%
[27]
  viability, T/C: 2.31%
[28]
  viability, T/C: 1.3%
[29]
  viability, T/C: 0.68%
[30]
  viability, T/C: 1.5%
[31]
  viability, T/C: 0.17%
[32]
  viability, T/C: 0.27%
[33]
  viability, T/C: 0.23%
[34]
  viability, T/C: 0.2%
[35]
  viability, T/C: 0.19%
[36]
  viability, T/C: 0.22%

## C#Cc1c(F)ccc2cc(O)cc(-c3ncc4c(N5CC6CCC(C5)N6)nc(OCC56CCCN5CC(F)C6)nc4c3F)c12 (stereo not drawn) + Cc1cnc(CNC(=O)c2c(=O)c3ccc(N4CCCN(C)CC4)nc3n3c2sc2ccccc23)cn1
Second compound 0.0316 µM
  IC50: > 10000 nM
Second compound 0.1 µM
  IC50: > 10000 nM
Second compound 0.316 µM
  IC50: < 31.6 nM
Second compound 1 µM
  IC50: < 31.6 nM
Second compound 3.16 µM
  IC50: < 31.6 nM
Second compound 10 µM
  IC50: < 31.6 nM
[1]
  viability, T/C: 101%
[2]
  viability, T/C: 81.6%
[3]
  viability, T/C: 72.6%
[4]
  viability, T/C: 64.5%
[5]
  viability, T/C: 76.5%
[6]
  viability, T/C: 63.5%
[7]
  viability, T/C: 59%
[8]
  viability, T/C: 64.7%
[9]
  viability, T/C: 54.6%
[10]
  viability, T/C: 61.5%
[11]
  viability, T/C: 68.3%
[12]
  viability, T/C: 64.3%
[13]
  viability, T/C: 23.7%
[14]
  viability, T/C: 24.6%
[15]
  viability, T/C: 22.4%
[16]
  viability, T/C: 19.5%
[17]
  viability, T/C: 22.6%
[18]
  viability, T/C: 25.7%
[19]
  viability, T/C: 3.9%
[20]
  viability, T/C: 5%
[21]
  viability, T/C: 2.72%
[22]
  viability, T/C: 2.84%
[23]
  viability, T/C: 3.14%
[24]
  viability, T/C: 1.95%
[25]
  viability, T/C: 2.08%
[26]
  viability, T/C: 2.35%
[27]
  viability, T/C: 1.86%
[28]
  viability, T/C: 1.3%
[29]
  viability, T/C: 1.63%
[30]
  viability, T/C: 0.57%
[31]
  viability, T/C: 0.16%
[32]
  viability, T/C: 0.2%
[33]
  viability, T/C: 0.25%
[34]
  viability, T/C: 0.19%
[35]
  viability, T/C: 0.24%
[36]
  viability, T/C: 0.21%

## CC(=O)O[C@H]1C(=O)[C@@]2(C)[C@H]([C@H](OC(=O)c3ccccc3)[C@]3(O)C[C@H](OC(=O)[C@H](O)[C@@H](NC(=O)c4ccccc4)c4ccccc4)C(C)=C1C3(C)C)[C@]1(OC(C)=O)CO[C@@H]1C[C@@H]2O + Cc1[nH]c2ccc(F)cc2c1-c1nc2c3cccnc3c3ncccc3c2[nH]1
Second compound 0.0316 µM
  IC50: < 31.6 nM
Second compound 0.1 µM
  IC50: < 31.6 nM
Second compound 0.316 µM
  IC50: 41.3 nM
Second compound 1 µM
  IC50: 32.9 nM
Second compound 3.16 µM
  IC50: 39.5 nM
Second compound 10 µM
  IC50: < 31.6 nM
[1]
  viability, T/C: 43.9%
[2]
  viability, T/C: 16.9%
[3]
  viability, T/C: 11.6%
[4]
  viability, T/C: 11.4%
[5]
  viability, T/C: 11.1%
[6]
  viability, T/C: 12.6%
[7]
  viability, T/C: 44.9%
[8]
  viability, T/C: 17.1%
[9]
  viability, T/C: 11.4%
[10]
  viability, T/C: 11.8%
[11]
  viability, T/C: 12.7%
[12]
  viability, T/C: 13.1%
[13]
  viability, T/C: 59.8%
[14]
  viability, T/C: 17.8%
[15]
  viability, T/C: 10.8%
[16]
  viability, T/C: 11%
[17]
  viability, T/C: 12.8%
[18]
  viability, T/C: 13.5%
[19]
  viability, T/C: 51.2%
[20]
  viability, T/C: 17.7%
[21]
  viability, T/C: 11.8%
[22]
  viability, T/C: 12.3%
[23]
  viability, T/C: 14.2%
[24]
  viability, T/C: 12.4%
[25]
  viability, T/C: 58%
[26]
  viability, T/C: 16.6%
[27]
  viability, T/C: 14.5%
[28]
  viability, T/C: 12.8%
[29]
  viability, T/C: 15%
[30]
  viability, T/C: 16.4%
[31]
  viability, T/C: 43.2%
[32]
  viability, T/C: 17.1%
[33]
  viability, T/C: 14%
[34]
  viability, T/C: 13.3%
[35]
  viability, T/C: 16.7%
[36]
  viability, T/C: 16.2%
